Test results as given in US20160152679A1, “RELAXIN-LIKE COMPOUNDS AND USES THEREOF” (ANGION BIOMEDICA CORP., priority 2012, published 2016).

Tested on: parental HEK-293T cells
Test: cAMP-Glo assay in parental HEK-293T cells lacking RXFP1
Format: cell-based
Conditions: parental HEK-293T cells (lack RXFP1); relaxin 10 ng/mL or compound 10 µg/mL; 30 or 60 min

## relaxin
  cAMP response in parental cells: no cAMP response
